Data published in patent US7732443B2, “Therapeutic substituted cyclopentanes” (priority 2008, dated 2010).

Legend:
Format in all cases: in vivo
[1] = tested on: normotensive dogs; assay: Intraocular pressure (IOP) in normotensive dogs
Description: Compounds from above are tested in vivo to measure its ability to reduce intraocular pressure. Compound 14a is tested in normotensive dogs.

[2] = tested on: laser-induced hypertensive monkeys; assay: Intraocular pressure (IOP) in laser-induced hypertensive monkeys
[3] = tested on: lashes and adjacent hairs of patients; assay: Lash and hair appearance in glaucoma patients treated in one eye only; conditions: glaucoma patient treated in one eye
Excerpt: In the course of treating patients having glaucoma, treatment may only be appropriate in one eye. […] The lash appearance on the lids of the treated eyes would have appeared quite attractive if it represented a bilateral phenomenon. As a result of its asymmetric nature, the long lashes on one side could be construed as disturbing from a cosmetic standpoint. A systemic examination was preformed as a result of the asymmetric phenomenon. It soon became apparent that this altered appearance was not an isolated finding. […] Definite differences could be identified to varying degrees in the lashes and adjacent hairs of all patients who were taking the drug on a unilateral basis for longer than 6 months.
The changes in the lashes were apparent on gross inspection in several patients once attention was focused on the issue. In those with light colored hair and lashes, the differences were only seen easily with the aid of the high magnification and lighting capabilities of the slit lamp biomicroscope. In the course of glaucoma follow-up examination, attention is generally immediately focused on the eye itself. As a result of the high power magnification needed only one eye is seen at a time and the eye is seen at a high enough power that the lashes are not in focus. […]

| Compound | intraocular pressure (IOP) change from baseline [1] | intraocular pressure (IOP) change from baseline [2] | lash appearance, treated eye versus non-treated eye [3] |
| --- | --- | --- | --- |
| CCCCCC(O)c1ccc(C2C(O)CC(Cl)C2Cc2cccc(CCC(=O)OCCO)c2)cc1 (centres unmarked) [Compound 25a] | decreases from baseline | decreases from baseline | – |
| CCCCCC(O)c1ccc(C2C(O)CC(Cl)C2Cc2cccc(CCC(=O)OCCN3CCOCC3)c2)cc1 (centres unmarked) [Compound 25b] | decreases from baseline | decreases from baseline | – |
| CCCCCC(O)c1ccc(C2C(O)CC(Cl)C2CCCc2ncc(C(=O)OCCO)s2)cc1 (centres unmarked) [Compound 34a] | decreases from baseline | decreases from baseline | – |
| CCCCCC(O)c1ccc(C2C(O)CC(Cl)C2CCCc2ncc(C(=O)OCCN3CCOCC3)s2)cc1 (centres unmarked) [Compound 34b] | decreases from baseline | decreases from baseline | – |
| CCCCCC(O)c1ccc(C2C(O)CC(F)C2CC=CCCCC(=O)OCCO)cc1 (centres unmarked) [Compound 40a] | decreases from baseline | decreases from baseline | – |
| CCCCCC(O)c1ccc(C2C(O)CC(F)C2CC=CCCCC(=O)OCCN2CCOCC2)cc1 (centres unmarked) [Compound 40b] | decreases from baseline | decreases from baseline | – |
| CCCCCC(O)c1ccc(C2C(O)CC(Cl)C2CC=CCCCC(=O)OCCO)cc1 (centres unmarked) [Compound 46a] | decreases from baseline | decreases from baseline | – |
| CCCCCC(O)c1ccc(C2C(O)CC(Cl)C2CC=CCCCC(=O)OCCN2CCOCC2)cc1 (centres unmarked) [Compound 46b] | decreases from baseline | decreases from baseline | – |
| CCCCCC(O)c1ccc(C2C(O)CC(Cl)C2CC=CCCCC(=O)OCCO)cc1 (centres unmarked) [Compound 51a] | decreases from baseline | decreases from baseline | – |
| CCCCCC(O)c1ccc(C2C(O)CC(Cl)C2CC=CCCCC(=O)OCCN2CCOCC2)cc1 (centres unmarked) [Compound 51b] | decreases from baseline | decreases from baseline | – |
| CCCCCCc1ccc(C2C(O)CC(Cl)C2CC=CCCCC(=O)OCCO)cc1 (centres unmarked) [Compound 63a] | decreases from baseline | decreases from baseline | – |
| CCCCCCc1ccc(C2C(O)CC(Cl)C2CC=CCCCC(=O)OCCN2CCOCC2)cc1 (centres unmarked) [Compound 63b] | decreases from baseline | decreases from baseline | – |
| CCCCCC(O)c1ccc(C2C(O)CC(Cl)C2CC=CCCCC(=O)OCCO)cc1 (centres unmarked) [Compound 68a] | decreases from baseline | decreases from baseline | – |
| CCCCCC(O)c1ccc(C2C(O)CC(Cl)C2CC=CCCCC(=O)OCCN2CCOCC2)cc1 (centres unmarked) [Compound 68b] | decreases from baseline | decreases from baseline | – |
| CCNC(=O)CCC/C=C\C[C@@H]1[C@@H](/C=C/[C@@H](O)CCc2ccccc2)[C@H](O)C[C@@H]1O [bimatoprost] | – | – | longer, thicker, and fuller in the treated eye than in the non-treated eye |
